Experimental findings from patent US20210198204A1, “PRODRUGS OF KALLIKREIN INHIBITORS” (BioCryst Pharmaceuticals, Inc., priority 2016, published 2021) are described below.

The nature of the series: Plasma pharmacokinetics of the parent compound after a single oral dose of prodrug. The class given is in vivo. Conditions: single oral dose 10 mg/kg, fasted male Sprague Dawley rats; plasma analyzed for the parent compound; study duration 8 h. The method, then: Plasma pharmacokinetics of compounds was determined using three male Sprague Dawley rats following a single oral dose administration. All animals were placed in a rat metabolic cage, isolated, and fasted approximately 15 hours prior to dosing. Identifying markers were placed on each animal. Each animal was weighed prior to dose administration. Animals were administered orally with a solution formulation of test compound either in water or a combination of water/propylene glycol, at a dose of 10 mg/kg. Gavage needles were attached to syringes and filled with appropriate amount of test article to be dosed. Blood samples (approximately 500 μL) were collected from three rats at pre-dose (time 0), 0.5, 1, 2, 4, 8, 12 and 24 hr, respectively, depending on study duration. Samples were collected into labeled micro centrifuge tubes containing (heparin solution) as an anticoagulant. Plasma was immediately harvested from the blood by centrifugation at 14,000 rpm for 3 min at 4° C., and stored below −70° C. until bioanalysis. Individual plasma samples were analyzed for the parent compound, 3-[2-(4-carbamimidoyl-phenylcarbamoyl)-5-methoxy-4-vinyl-phenyl]-6-(cyclopropylmethyl-carbamoyl)-pyridine-2-carboxylic acid. As shown in Table-1, the test compounds yielded varying degrees of exposure to the parent compound. The test compounds generally provided for improved bioavailability of the parent compound as compared to dosing of the parent compound in aqueous solutions.

As to `C=Cc1cc(C(=O)Nc2ccc(C(=N)NC(=O)OCCCCCC)cc2)c(-c2ccc(C(=O)NCC3CC3)nc2C(=O)OCc2oc(=O)oc2C)cc1OC` [Compound 35a, (5-methyl-2-oxo-1,3-dioxol-4-yl)methyl 6-((cyclopropylmethyl)carbamoyl)-3-(2-((4-(N-((hexyloxy)carbonyl)carbamimidoyl)phenyl)carbamoyl)-5-methoxy-4-vinylphenyl)picolinate], the “AUC0-last hour (area under the curve)” value is on record as “B (B = 1,001-10,000 ng/mL)”.
As to `C=Cc1cc(C(=O)Nc2ccc(C(=N)NC(=O)OCCCCCC)cc2)c(-c2ccc(C(=O)NCC3CC3)nc2C(=O)OC(C)OC(=O)C(C)C)cc1OC` (stereo not shown) [Compound 36b, 1-(isobutyryloxy)ethyl 6-((cyclopropylmethyl)carbamoyl)-3-(2-((4-(N-((hexyloxy)carbonyl)carbamimidoyl)phenyl)carbamoyl)-5-methoxy-4-vinylphenyl)picolinate], the “AUC0-last hour (area under the curve)” value is on record as “C (C >10,000 ng/mL)”.
Take `C=Cc1cc(C(=O)Nc2ccc(C(=N)N)cc2)c(-c2ccc(C(=O)NCC3CC3)nc2C(=O)OCOC(=O)CN)cc1OC.Cl` [Compound 37e, (2-aminoacetoxy)methyl 3-(2-((4-carbamimidoylphenyl)carbamoyl)-5-methoxy-4-vinylphenyl)-6-((cyclopropylmethyl)carbamoyl)picolinate Hydrochloride]: the “AUC0-last hour (area under the curve)” value was “B (B = 1,001-10,000 ng/mL)”.
Turning to `C=Cc1cc(C(=O)Nc2ccc(C(=N)NC(=O)OCCCCCC)cc2)c(-c2ccc(C(=O)NCC3CC3)nc2C(=O)OC(C)OC(=O)OC(C)C)cc1OC` (stereo not shown) [Compound 39a, 1-((isopropoxycarbonyl)oxy)ethyl 6-((cyclopropylmethyl)carbamoyl)-3-(2-((4-(N-((hexyloxy)carbonyl)carbamimidoyl)phenyl)carbamoyl)-5-methoxy-4-vinylphenyl)picolinate], the “AUC0-last hour (area under the curve)” value is given as “C (C >10,000 ng/mL)”.
In the case of `C=Cc1cc(C(=O)Nc2ccc(C(=N)NC(=O)OCCCCCC)cc2)c(-c2ccc(C(=O)NCC3CC3)nc2C(=O)OC(C)OC(=O)OC(C)(C)C)cc1OC` (stereo not shown) [Compound 41a, 1-((tert-butoxycarbonyl)oxy)ethyl 6-((cyclopropylmethyl)carbamoyl)-3-(2-((4-(N-((hexyloxy)carbonyl)carbamimidoyl)phenyl)carbamoyl)-5-methoxy-4-vinylphenyl)picolinate], the “AUC0-last hour (area under the curve)” value is reported as “B (B = 1,001-10,000 ng/mL)”.
On to `C=Cc1cc(C(=O)Nc2ccc(C(=N)NC(=O)OCC)cc2)c(-c2ccc(C(=O)NCC3CC3)nc2C(=O)OC(C)OC(=O)C(C)C)cc1OC` (stereo not shown) [Compound 42a, 1-(isobutyryloxy)ethyl 6-((cyclopropylmethyl)carbamoyl)-3-(2-((4-(N-(ethoxycarbonyl)carbamimidoyl)phenyl)carbamoyl)-5-methoxy-4-vinylphenyl)picolinate], for which the “AUC0-last hour (area under the curve)” value is “C (C >10,000 ng/mL)”.
For `C=Cc1cc(C(=O)Nc2ccc(C(=N)NC(=O)OCC)cc2)c(-c2ccc(C(=O)NCC3CC3)nc2C(=O)OC(C)OC(=O)OC(C)C)cc1OC` (stereo not shown) [Compound 43a, 1-((isopropoxycarbonyl)oxy)ethyl 6-((cyclopropylmethyl)carbamoyl)-3-(2-((4-(N-(ethoxycarbonyl)carbamimidoyl)phenyl)carbamoyl)-5-methoxy-4-vinylphenyl)picolinate] the value was “C (C >10,000 ng/mL)”; for `C=Cc1cc(C(=O)Nc2ccc(C(=N)NC(=O)OCc3oc(=O)oc3C)cc2)c(-c2ccc(C(=O)NCC3CC3)nc2C(=O)O)cc1OC` [Compound 44b, 6-((cyclopropylmethyl)carbamoyl)-3-(5-methoxy-2-((4-(N-(((5-methyl-2-oxo-1,3-dioxol-4-yl)methoxy)carbonyl)carbamimidoyl)phenyl)carbamoyl)-4-vinylphenyl)picolinic acid], “A (A = 0-1,000 ng/mL)”.
For `C=Cc1cc(C(=O)Nc2ccc(C(=N)NC(=O)OCCCCCC)cc2)c(-c2ccc(C(=O)NCC3CC3)nc2C(=O)OCOC(=O)CN)cc1OC` [Compound 45b, (2-aminoacetoxy)methyl 6-((cyclopropylmethyl)carbamoyl)-3-(2-((4-(N-((hexyloxy)carbonyl)carbamimidoyl)phenyl)carbamoyl)-5-methoxy-4-vinylphenyl)picolinate] the value was “A (A = 0-1,000 ng/mL)”.
For `C=Cc1cc(C(=O)Nc2ccc(C(=N)NC(=O)OC(C)OC(C)=O)cc2)c(-c2ccc(C(=O)NCC3CC3)nc2C(=O)OC(C)OC(=O)OC(C)C)cc1OC` (stereo not shown) [Compound 47a, 1-((isopropoxycarbonyl)oxy)ethyl 3-(2-((4-(N-((1-acetoxyethoxy)carbonyl)carbamimidoyl)phenyl)carbamoyl)-5-methoxy-4-vinylphenyl)-6-((cyclopropylmethyl)carbamoyl) picolinate] the value was “B (B = 1,001-10,000 ng/mL)”; for `C=Cc1cc(C(=O)Nc2ccc(C(=N)NC(=O)OC(C)OC(C)=O)cc2)c(-c2ccc(C(=O)NCC3CC3)nc2C(=O)OC(C)OC(=O)C(C)C)cc1OC` (stereo not shown) [Compound 48b, 1-(isobutyryloxy)ethyl 3-(2-((4-(N-((1-acetoxyethoxy)carbonyl)carbamimidoyl)phenyl)carbamoyl)-5-methoxy-4-vinylphenyl)-6-((cyclopropylmethyl)carbamoyl)picolinate], “C (C >10,000 ng/mL)”.
For the compound `C=Cc1cc(C(=O)Nc2ccc(C(=N)NC(=O)OC(C)OC(=O)C(C)C)cc2)c(-c2ccc(C(=O)NCC3CC3)nc2C(=O)OC(C)OC(=O)OC(C)C)cc1OC` (stereo not shown) [Compound 49a, 1-((isopropoxycarbonyl)oxy)ethyl 6-((cyclopropylmethyl)carbamoyl)-3-(2-((4-(N-((1-(isobutyryloxy)ethoxy)carbonyl)carbamimidoyl)phenyl)carbamoyl)-5-methoxy-4-vinylphenyl)picolinate], the “AUC0-last hour (area under the curve)” value was “B (B = 1,001-10,000 ng/mL)”.
As for `C=Cc1cc(C(=O)Nc2ccc(C(=N)NC(=O)OCCCCCC)cc2)c(-c2ccc(C(=O)NCC3CC3)nc2C(=O)OCOC(=O)[C@@H](N)CC(C)C)cc1OC` [Compound 50d, (S)-((2-amino-4-methylpentanoyl)oxy)methyl 6-((cyclopropylmethyl)carbamoyl)-3-(2-((4-(N-((hexyloxy)carbonyl)carbamimidoyl)phenyl)carbamoyl)-5-methoxy-4-vinylphenyl)picolinate], the “AUC0-last hour (area under the curve)” value is “B (B = 1,001-10,000 ng/mL)”.
Consider `C=Cc1cc(C(=O)Nc2ccc(C(=N)NO)cc2)c(-c2ccc(C(=O)NCC3CC3)nc2C(=O)OC(C)OC(=O)OC(C)C)cc1OC` (stereo not shown) [Compound 51b, 1-((isopropoxycarbonyl)oxy)ethyl 6-((cyclopropylmethyl)carbamoyl)-3-(2-((4-(N-hydroxycarbamimidoyl)phenyl)carbamoyl)-5-methoxy-4-vinylphenyl)picolinate], for which the “AUC0-last hour (area under the curve)” value is “A (A = 0-1,000 ng/mL)”.
For `C=Cc1cc(C(=O)Nc2ccc(-c3noc(=O)[nH]3)cc2)c(-c2ccc(C(=O)NCC3CC3)nc2C(=O)OC(C)OC(=O)OC(C)C)cc1OC` (stereo not shown) [Compound 52b, 1-((isopropoxycarbonyl)oxy)ethyl 6-((cyclopropylmethyl)carbamoyl)-3-(5-methoxy-2-((4-(5-oxo-4,5-dihydro-1,2,4-oxadiazol-3-yl)phenyl)carbamoyl)-4-vinylphenyl)picolinate] the value was “A (A = 0-1,000 ng/mL)”; for `C=Cc1cc(C(=O)Nc2ccc(C(=N)NC(=O)OC(C)OC(=O)[C@@H](N)C(C)C)cc2)c(-c2ccc(C(=O)NCC3CC3)nc2C(=O)OC(C)OC(=O)OC(C)C)cc1OC` (stereo partly drawn) [Compound 54c, 1-((isopropoxycarbonyl)oxy)ethyl 3-(2-((4-(N-((1-(((S)-2-amino-3-methylbutanoyl)oxy)ethoxy)carbonyl)carbamimidoyl)phenyl)carbamoyl)-5-methoxy-4-vinylphenyl)-6-((cyclopropylmethyl)carbamoyl)picolinate], “B (B = 1,001-10,000 ng/mL)”; for `C=Cc1cc(C(=O)Nc2ccc(C(=N)NC(=O)OC(C)OC(=O)[C@@H](N)C(C)C)cc2)c(-c2ccc(C(=O)NCC3CC3)nc2C(=O)OC(C)OC(=O)C(C)C)cc1OC` (stereo partly drawn) [Compound 55b, 1-(isobutyryloxy)ethyl 3-(2-((4-(N-((1-(((S)-2-amino-3-methylbutanoyl)oxy)ethoxy)carbonyl)carbamimidoyl)phenyl)carbamoyl)-5-methoxy-4-vinylphenyl)-6-((cyclopropylmethyl)carbamoyl)picolinate], “B (B = 1,001-10,000 ng/mL)”.
As for `C=Cc1cc(C=O)c(-c2ccc(C(=O)NCC3CC3)nc2C(=O)OC(OC(=O)C(C)(C)C)C(C)C)cc1OC` (stereo not shown) [Compound 56b, 2-methyl-1-(pivaloyloxy)propyl 6-((cyclopropylmethyl)carbamoyl)-3-(2-formyl-5-methoxy-4-vinylphenyl)picolinate], the entry is “C (C >10,000 ng/mL)”.
As to `C=Cc1cc(C(=O)Nc2ccc(C(=N)NC(=O)OCCCCCC)cc2)c(-c2ccc(C(=O)NCC3CC3)nc2C(=O)OC(OC(=O)C(C)(C)C)C(C)C)cc1OC` (stereo not shown) [Compound 57a, 2-methyl-1-(pivaloyloxy)propyl 6-((cyclopropylmethyl)carbamoyl)-3-(2-((4-(N-((hexyloxy)carbonyl)carbamimidoyl)phenyl)carbamoyl)-5-methoxy-4-vinylphenyl)picolinate], the “AUC0-last hour (area under the curve)” value is recorded as “B (B = 1,001-10,000 ng/mL)”.
